# Test results: PubChem BioAssay (NCI)
# “And” between values parts separate entries of the source, which are not always exact repeats. Equal values may be shown once.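 Growth conditions: 96-well plates. Treatment: test compound, 48 hours, 5 concentrations. Analysis: linear interpolation between bracketing concentrations; unreached endpoints set to highest concentration. The concentration for 50% growth inhibition is given as GI50. TGI: concentration producing complete growth inhibition.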
# Tests used:
# Assay in all cases: NCI tumour cell line growth inhibition, 48 h
# [1] = test system: OVCAR-4 ovarian
# [2] = test system: OVCAR-8 ovarian
# [3] = test system: U251 CNS
# [4] = test system: PC-3 prostate
# [5] = test system: UACC-257 melanoma
# [6] = test system: SW-620 colon
# [7] = test system: HCT-116 colon
# [8] = test system: LOX IMVI melanoma
Compound,GI50 [1],TGI [1] [µM],GI50 [2],TGI [2] [µM],GI50 [3],TGI [3] [µM],GI50 [4],TGI [4] [µM],GI50 [5] [µM],TGI [5] [µM],GI50 [6],TGI [6] [µM],GI50 [7],TGI [7] [µM],GI50 [8],TGI [8] [µM]
Cn1c(=O)c(Oc2ccc(F)cc2F)cc2cnc(N[C@@H]3CCOC3)nc21,> 25 µM,> 25,> 25 µM,> 25,> 25 µM,> 25,> 25 µM,> 25,> 25,> 25,> 25 µM,> 25,> 25 µM,> 25,> 25 µM,> 25
CCC(=O)N1C/C(=C/c2ccc(Br)cc2)C(=O)/C(=C/c2ccc(Br)cc2)C1,1.01 µM,3.75,0.499 µM,2.88,0.24 µM,0.763,0.632 µM,2.29,1.63,3.47,0.22 µM,0.82,< 0.0417 µM,0.311,< 0.0333 µM,0.248
Cn1cc(C2=C(c3cn(CCCN)c4ccccc34)C(=O)NC2=O)c2ccccc21,4.22 µM,12.9,5.46 µM,14.7,5.01 µM,11.5,7.63 µM,24.6,4.9,9.05,4.38 µM,9.37,3.48 µM,10.1,3.4 µM,7.49
O=C(Nc1cc(F)c(F)cc1C(=O)O)c1ccc(-n2ccnc2)nn1,65.6 µM,> 100,> 100 µM,> 100,> 100 µM,> 100,> 100 µM,> 100,> 100,> 100,> 100 µM,> 100,> 100 µM,> 100,> 100 µM,> 100
COCCc1n(Cc2ccc3ccccc3c2)c2ccccc2[n+]1Cc1ccc2ccccc2c1,0.329 µM,1.34,–,–,–,–,0.412 µM,1.62,0.456,1.77,1.11 µM,2.59,–,–,–,–
O=C1Cc2cc(CCn3cncn3)c(Cl)cc2N1,> 100 µM,> 100,69.4 µM,> 100,14.5 µM,> 100,> 100 µM,> 100,7.14,> 100,6.6 µM,> 100,32 µM,> 100,> 100 µM,> 100
CCCCCCCCCCNCCSS(=O)(=O)O,9.91 µM,24.4,2.12 µM,4.68,1.99 µM,4.12,1.98 µM,4.07,7.88,22.4,1.95 µM,4.32,2.01 µM,3.85,1.69 µM,3.26
NCCCNc1nc2ccccc2c2c(=O)c3cccc(Cl)c3sc12,–,–,–,–,–,–,1.52 µM,2.95,–,–,–,–,1.34 µM,2.7,–,–
OC1CCCC2CCC[N-]C12.OC1CCCC2CCC[N-]C12.[O]=[V][OH] (stereo not drawn),3.05 µM,> 100,2.98 µM,> 100,1.87 µM,5.72,2.59 µM,8.63,4.05,> 100,3.5 µM,37.5,2.66 µM,11.5,6.09 µM,33.6
CC[C@H](C)[C@H](NC(=O)[C@H]1CCCCN1C)C(=O)N(C)[C@H](C[C@@H](OC(C)=O)c1cccc(C(=O)N[C@@H](Cc2ccccc2)C[C@H](C)C(=O)O)n1)C(C)C,0.057 µM and 0.0168 µM,> 25,0.00542 µM and 0.0025 µM,> 25,0.000744 µM and 0.0025 µM,> 25,0.00273 µM and 0.0025 µM,> 25,–,–,0.000493 µM and 0.0025 µM,> 25,0.00225 µM and 0.0025 µM,4.16,0.00168 µM and 0.0025 µM,> 25
CCOC(=O)c1c(C)nc2c(c1N)/C(=C/c1ccccn1)C(=O)N2Cc1ccccc1,1.51 µM,> 50,1.65 µM,> 50,0.948 µM,1.72,1.17 µM,2.64,–,–,1 µM,2.31,0.847 µM,1.62,0.83 µM,1.54
COc1ccc2c(c1)/C(=C\c1c(-c3cc(OC)ccc3OC)nc3sccn13)C(=O)N2,1.53 µM,2.87,–,–,9.76 µM,24.5,7.97 µM and 2.32 µM,5.83,2.17,4.43,–,–,1.42 µM,3.48,5.22 µM,21.5
CNC(=O)c1c(F)cccc1Nc1nc(Nc2cc3c(cc2OC)CCN3C(=O)CN(C)C)nc2[nH]ccc12,1.87 µM,3.99,2.79 µM,8.5,2.39 µM,6.61,6.25 µM,39.9,–,–,1.14 µM,3.42,1.54 µM,3.33,2.4 µM,7.26
COc1cc2ncnc(Nc3ccc(Oc4ccnc(C)c4)c(C)c3)c2cc1NC(=O)CC1CCSS1 (stereo not drawn),1.54 µM,24.3,2.19 µM,> 50,1.15 µM,2.81,–,–,1.02,2.35,1.14 µM,2.71,–,–,2.62 µM,> 50
C#CC1(O)C(COP(=O)(O)OCC2OC(n3cc(F)c(=O)[nH]c3=O)CC2O)OC(n2ccc(N)nc2=O)C1O (stereo not drawn),–,–,< 0.01 µM,–,< 0.0273 µM,> 100,< 0.0305 µM,> 69,0.114,> 23.1,< 0.01 µM,> 100,< 0.01 µM,> 100,< 0.01 µM,–
COc1ccc2c(c1)CCc1cc(OC)ccc1/[N+]([O-])=[N+]\2[O-],–,–,–,33,–,38.6,–,31.6,–,35,–,26.1,–,–,–,42.7
